Measurements reported in patent publication US8846567B2, “Active compound combinations having insecticidal and acaricidal properties” (priority 2009, dated 2014).
Like-named read-outs stand apart in the source and are kept apart here.

Experiments:
Type in all cases: in vivo
[1] = tested on: Myzus persicae; settings: 0.8 g/ha, single active compound
From the text: (§1) If the actual insecticidal or acaricidal kill rate exceeds the calculated value, the kill of the combination is superadditive, i.e. a synergistic effect is present. In this case, the actually observed kill rate must exceed the value calculated using the above formula for the expected kill rate (E).
(§2) • Solvents: 78 parts by weight of acetone 1.5 parts by weight of dimethylformamide • Emulsifier: 0.5 part by weight of alkylaryl polyglycol ether
After the desired period of time, the kill in % is determined 100% means that all of the aphids have been killed; 0% means that none of the aphids have been killed. The kill rates determined are entered into Colby's formula (see above).

[2] = tested on: Phaedon cochleariae
From the text: as §1, §2
After the desired period of time, the kill in % is determined 100% means that all beetle larvae have been killed; 0% means that none of the beetle larvae have been killed. The kill rates determined are entered into Colby's formula (see above).

[3] = tested on: Spodoptera frugiperda; test: Spodoptera frugiperda test (sprayed cabbage leaves); settings: single active compound
From the text: The expected action for a given combination of two active compounds can be calculated according to S. R. Colby, Weeds 15 (1967), 20-22, as follows:
as §1, §2
To produce a suitable preparation of active compound, 1 part by weight of active compound is mixed with the stated amount of solvent and emulsifier, and the concentrate is diluted with emulsifier-containing water to the desired concentration.
Cabbage leaves (Brassica oleracea) are treated by being sprayed with the preparation of active compound of the desired concentration and are populated with larvae of the armyworm (Spodoptera frugiperda) while the leaves are still moist.
After the desired period of time, the kill in % is determined 100% means that all caterpillars have been killed; 0% means that none of the caterpillars have been killed. The kill rates determined are entered into Colby's formula (see above).

[4] = 20 g/ha, after 6 d, single active compound
[5] = 100 g/ha, after 6 d, single active compound
[6] = 20 g/ha, single active compound
[7] = 4 g/ha, after 6 d, single active compound

Compound	Kill in % after 6 d [1]	Kill In % after 6d [2, 4]	Kill In % after 6d [2, 5]	Kill in % after 6 d ([3]; 4 g/ha)	Kill In % after 2d ([2]; 4 g/ha, single active compound)	Kill In % after 2d [2, 6]	Kill in % after 6 d ([3]; 20 g/ha)	also measured
COP(=O)(NC(C)=O)SC (stereo not drawn) [acephate]	0%	0%	0%					
CCOP(=S)(OCC)Oc1nc(Cl)c(Cl)cc1Cl [chlorpyriphos, chlorpyrifos]				67%	0%	50%		
O=C1C=C(N(CCF)Cc2ccc(Cl)nc2)CO1 [compound (I-4), 4-{[(6-chloropyrid-3-yl)methyl](2-fluoroethyl)amino}furan-2(5H)-one]			50%		0%		0%	Kill in % after 1d [1]: 20%; Kill In % after 6d [2, 7]: 0%; Kill In % after 2d ([2]; 100 g/ha, single active compound): 50%
O=C1C=C(N(Cc2ccc(Cl)nc2)CC(F)F)CO1 [compound (I-5), 4-{[(6-chloropyrid-3-yl)methyl](2,2-difluoroethyl)amino}furan-2(5H)-one]			67%	0%		17%		Kill In % after 6d [2, 7]: 0%
CN(Cc1cnc(Cl)c(F)c1)C1=CC(=O)OC1 [compound (I-6), 4-{[(6-chloro-5-fluoropyrid-3-yl)methyl](methyl)amino}furan-2(5H)-one]	80%	17%		0%		0%	0%	
CCCSP(=O)(OCC)SCCC [ethoprofos, ethoprophos]								Kill In % after 6d ([2]; in vivo): 0%
CCOP(=O)(NC(C)C)Oc1ccc(SC)c(C)c1 (stereo not drawn) [fenamiphos]	0%							
COP(N)(=O)SC (stereo not drawn) [methamidophos]	0%						67%	
CS/C(C)=N/OC(=O)N(C)SN(C)C(=O)O/N=C(\C)SC [thiodicarb]	0%	0%	0%	50%			83%	Kill in % after 1d [1]: 0%
methiocarb	0%				17%			
